Laboratory results reported in patent US20080286349A1, “SYSTEMS, DEVICES, AND METHODS FOR PASSIVE TRANSDERMAL DELIVERY OF ACTIVE AGENTS TO A BIOLOGICAL INTERFACE” (priority 2007, published 2008).
Where a name gives a salt, the structure may show the parent alone.

Experiments:
[1] = Membrane potential measurement across skin in H-shaped Franz cell; ion mobility relative to chloride; format: physicochemical, mouse; conditions: Cl− = 1
From the text: The electric potential difference shown here is between the outside and the inside of the skin. The “+/−” notation is opposite to that shown in Equation 12. […] These values have been used to make calculations.

[2] = Computed membrane potential and ion flux (Eq. 11 Goldman equation, Eq. 12); conditions: relative to Cl−
From the text: Further, it is necessary to linearly approximate the concentration gradient or the electric potential gradient to solve equation 9. […] The potential difference across the skin has been considered for a single component system. […] Thus, a film potential can be calculated provided that the ion mobility (omega) and concentration (c) within the skin are known. The ion transport speed can then be found from the calculated film potential.

[3] = Delivery of aqueous drug solutions through skin in Franz cell (amount over time, flux); conditions: for experimental Flux J: 1.0% Diclofenac
From the text: An H-shaped Franz cell (FIG. 7) was used to evaluate the theory described herein. As shown, the Franz cell 28 includes a donor chamber 30a and a receiver chamber 30b. The donor chamber 30a contains an ionic active agent, which permeates through a membrane 32 to reach the receiver chamber 30b. A working electrode 34a was inserted in the donor chamber 30a, while a counter electrode 34b (i.e., reference electrode) was inserted in the receptor chamber 30b. It is possible to measure the electrical potential difference induced by the ionic diffusion/permeation and the concentration gradient thus established. […]

[4] = Example 1: Procaterol HCl solutions, Franz cell at 32° C.; format: in vitro ADME, mouse; design: unit not given here
Method: Typically, 17 ml of phosphate buffered saline (PBS, sold by Wako Pure Chemical Industries) was injected into the receptor cell, and a 10 mm stirring bar was used to agitate the solution during the test. The Franz cell was placed in an incubator (made by ESPEC, model LH-113) with the temperature set to 32° C. and the humidity set to 70%. Samples were typically extracted from the cell at predetermined times using a 200 μl Gilson Pipetman. 200 μl of PBS was then added to the cell after each sampling operation.
For measuring the active agent (e.g., Procaterol cation) permeated, a standard solution with known concentration can be prepared and compared with the concentration measured. Using Procaterol HCl as an example, 50 mg of Procaterol HCl (97.25% anhydrous) was accurately measured out, and then added to water to form 50 ml of solution (“Procaterol concentrate liquid”). The standard concentrate was then diluted (“Procaterol standard solution”) and used as a mobile phase for high performance (or pressure) liquid chromatography (HPLC). The Procaterol concentrate liquid was sealed in a light shielding bottle and stored in a refrigerator. 10 μl of each test sample and 10 μl of the standard solution was measured using HPLC, and Procaterol peak areas At (test samples) and As (standard solution) were determined for each sample. Procaterol HCl masses were then found for each test sample using the following equation: […]
In Example 1, before testing the delivery device 10, sixteen tests were performed at four different agent concentrations (four tests (#1, #2, #3, and #4) for each concentration of active agent) using Procaterol HCl in order to investigate the transport of Procaterol cation into and through skin along a concentration gradient. A Franz cell was used at 32° C. using hairless mouse skin as a permeable membrane. 720 corresponds to the average delivery of a 5 wt % Procaterol-HCl concentration, 722 corresponds to the average delivery of a 2.5 wt % Procaterol-HCl concentration, 724 corresponds to the average delivery of a 1 wt % Procaterol-HCl concentration, and 726 corresponds to the average delivery of a 0.5 wt % Procaterol-HCl concentration. […] It can be seen that the amount of Procaterol delivered through the skin increases over time. Further, it can also be seen that the amount of Procaterol delivered increases with increased Procaterol concentration. To deliver a medically effective amount of Procaterol through the skin, the concentration of the Procaterol solution must be equal to or greater than a certain threshold concentration. A sufficient amount of Procaterol dissolved in water was used in this experiment, thus leading to a rather large Procaterol delivery speed. It is therefore possible to deliver Procaterol through the skin, provided that the solution exists in proximity to the surface of the skin.

O=C1O[C@H]([C@@H](O)CO)C(O)=C1O[C@H]1O[C@H](CO)[C@@H](O)[C@H](O)[C@H]1O [AA2G, L-Ascorbic acid 2-Glucoside]
Mobility of ion (AA2G− compared to chloride ions) ([1]; AA2G 300 mM (0.296 mol dm^−3 donor)): 0.83 | Mobility ratio w ([2]; AA2G 0.000059 mol cm^3): 0.1 | Mobility ratio w ([2]; AA2G 0.000148 mol cm^3): 0.4

O=C([O-])Cc1ccccc1Nc1c(Cl)cccc1Cl.[Na+] [Diclofenac, monosodium 2-(2-(2,6-dichlorophenylamino)phenyl)acetate]
Flux ([3]; 0.003 M sodium Diclofenac): 1.30 μg h^−1 cm^−2 | Amount of Diclofenac delivered ([3]; 0.003 M, time 0 hr): 0.0 | Amount of Diclofenac delivered ([3]; 0.003 M, time 1 hr): 0.0 | Amount of Diclofenac delivered ([3]; 0.003 M, time 3 hr): 2.0 | Amount of Diclofenac delivered ([3]; 0.003 M, time 5 hr): 5.6 | Amount of Diclofenac delivered ([3]; 0.003 M, time 24 hr): 31.1 | Flux ([3]; 0.016 M sodium Diclofenac): 2.21 μg h^−1 cm^−2 | Amount of Diclofenac delivered ([3]; 0.016 M, time 0 hr): 0.0 | Amount of Diclofenac delivered ([3]; 0.016 M, time 1 hr): 0.0 | Amount of Diclofenac delivered ([3]; 0.016 M, time 3 hr): 3.6 | Amount of Diclofenac delivered ([3]; 0.016 M, time 5 hr): 9.8 | Amount of Diclofenac delivered ([3]; 0.016 M, time 24 hr): 53.1 | Flux ([3]; 0.031 M sodium Diclofenac): 4.62 μg h^−1 cm^−2 | Amount of Diclofenac delivered ([3]; 0.031 M, time 0 hr): 0.0 | Amount of Diclofenac delivered ([3]; 0.031 M, time 1 hr): 0.3 | Amount of Diclofenac delivered ([3]; 0.031 M, time 3 hr): 5.4 | Amount of Diclofenac delivered ([3]; 0.031 M, time 5 hr): 12.1 | Amount of Diclofenac delivered ([3]; 0.031 M, time 24 hr): 110.9 | experimental Flux J ([3]; KCl conc 0 %): 4.3 μg h^−1 cm^−2 | experimental Flux J ([3]; KCl conc 0.1 %): 6.2 μg h^−1 cm^−2 | experimental Flux J ([3]; KCl conc 0.5 %): 7.0 μg h^−1 cm^−2 | Mobility of ion (Diclofenac anion compared to chloride ions) ([1]; 0.032 mol dm^−3 sodium Diclofenac donor): 4.6 | Mobility ratio w ([2]; Diclofenac 0.0000016 mol cm^−3): 4.6 | Mobility ratio w ([2]; Diclofenac 0.0000032 mol cm^−3 (last line)): 4.6 | Mobility ratio w ([2]; Diclofenac 0.0000032 mol cm^−3 (third line)): 4.6 | Mobility ratio w ([2]; Diclofenac 0.000016 mol cm^−3): 4.6

CCC(NC(C)C)C(O)c1ccc(O)c2[nH]c(=O)ccc12 (stereo not shown) [Procaterol HCl, 8-hydroxy-5-[1-hydroxy-2-[(1-methylethyl)amino]butyl]-2(1H)-quinolinone]
Flux ([3]; 0.015 M aqueous Procaterol): 0 mg h^−1 cm^−2 | Amount of aqueous Procaterol delivered ([3]; 0.015 M, time 0 hr): 0 | Amount of aqueous Procaterol delivered ([3]; 0.015 M, time 2 hr): 0 | Amount of aqueous Procaterol delivered ([3]; 0.015 M, time 3 hr): 0 | Amount of aqueous Procaterol delivered ([3]; 0.015 M, time 5 hr): 0 | Flux ([3]; 0.03 M aqueous Procaterol): 0.024 mg h^−1 cm^−2 | Amount of aqueous Procaterol delivered ([3]; 0.03 M, time 0 hr): 0 | Amount of aqueous Procaterol delivered ([3]; 0.03 M, time 2 hr): 0 | Amount of aqueous Procaterol delivered ([3]; 0.03 M, time 3 hr): 0 | Amount of aqueous Procaterol delivered ([3]; 0.03 M, time 5 hr): 0.12 | Flux ([3]; 0.06 M aqueous Procaterol): 0.082 mg h^−1 cm^−2 | Amount of aqueous Procaterol delivered ([3]; 0.06 M, time 0 hr): 0 | Amount of aqueous Procaterol delivered ([3]; 0.06 M, time 2 hr): 0.13 | Amount of aqueous Procaterol delivered ([3]; 0.06 M, time 3 hr): 0.22 | Amount of aqueous Procaterol delivered ([3]; 0.06 M, time 5 hr): 0.41 | Flux ([3]; […] aqueous Procaterol): 0.84 mg h^−1 cm^−2 | Amount of aqueous Procaterol delivered ([3]; […], time 0 hr): 0 | Amount of aqueous Procaterol delivered ([3]; […], time 2 hr): 1.53 | Amount of aqueous Procaterol delivered ([3]; […], time 3 hr): 2.47 | Amount of aqueous Procaterol delivered ([3]; […], time 5 hr): 4.20 | Total transmission amount, Ave. ([4]; Test ID 720 (5.0%), 0 hrs.): 0.0 | Total transmission amount, single samples #1-#4 ([4]; Test ID 720 (5.0%), 0 hrs.): 0.0 | Total transmission amount, Ave. ([4]; Test ID 720 (5.0%), 1 hr.): 0.7 | Total transmission amount, Ave. ([4]; Test ID 720 (5.0%), 3 hrs.): 5.3 | Total transmission amount, Ave. ([4]; Test ID 720 (5.0%), 5 hrs.): 10.4 | Total transmission amount, Ave. ([4]; Test ID 720 (5.0%), 8 hrs.): 16.3 | Total transmission amount, Ave. ([4]; Test ID 722 (2.5%), 0 hrs.): 0.0 | Total transmission amount, single samples #1-#4 ([4]; Test ID 722 (2.5%), 0 hrs.): 0.0 | Total transmission amount, Ave. ([4]; Test ID 722 (2.5%), 1 hr.): 0.4 | Total transmission amount, Ave. ([4]; Test ID 722 (2.5%), 3 hrs.): 1.7 | Total transmission amount, Ave. ([4]; Test ID 722 (2.5%), 5 hrs.): 2.8 | Total transmission amount, Ave. ([4]; Test ID 722 (2.5%), 8 hrs.): 4.1 | Total transmission amount, Ave. ([4]; Test ID 724 (1.0%), 0 hrs.): 0.0 | Total transmission amount, single samples #1-#4 ([4]; Test ID 724 (1.0%), 0 hrs.): 0.0 | Total transmission amount, Ave. ([4]; Test ID 724 (1.0%), 1 hr.): 0.0 | Total transmission amount, single samples #1-#4 ([4]; Test ID 724 (1.0%), 1 hr.): 0.0 | Total transmission amount, Ave. ([4]; Test ID 724 (1.0%), 3 hrs.): 0.2 | Total transmission amount, Ave. ([4]; Test ID 724 (1.0%), 5 hrs.): 0.4 | Total transmission amount, Ave. ([4]; Test ID 724 (1.0%), 8 hrs.): 0.7 | Total transmission amount, Ave. ([4]; Test ID 726 (0.5%), 0 hrs.): 0.0 | Total transmission amount, single samples #1-#4 ([4]; Test ID 726 (0.5%), 0 hrs.): 0.0 | Total transmission amount, Ave. ([4]; Test ID 726 (0.5%), 1 hr.): 0.0 | Total transmission amount, single samples #1-#4 ([4]; Test ID 726 (0.5%), 1 hr.): 0.0 | Total transmission amount, Ave. ([4]; Test ID 726 (0.5%), 3 hrs.): 0.2 | Total transmission amount, Ave. ([4]; Test ID 726 (0.5%), 5 hrs.): 0.5 | Total transmission amount, Ave. ([4]; Test ID 726 (0.5%), 8 hrs.): 0.8 | Mobility of ion (Procaterol cation with respect to chloride ions) ([1]; […] Procaterol HCl donor): 0.13 | Mobility ratio w ([2]; Procaterol 0.000015 mol cm^−3): 0.13 | Mobility ratio w ([2]; Procaterol 0.00003 mol cm^−3): 0.13 | Mobility ratio w ([2]; Procaterol 0.00006 mol cm^−3): 0.13
